Experimental data taken from patent publication US20240398697A1, “Injectable Formulations” (The University of Liverpool, priority 2021, published 2024).
Like-named read-outs stand apart in the source and are kept apart here.

Tests used:
[1] = Ex vivo skin deposition, modified Franz diffusion cell; type: in vitro ADME
Experimental: Ex vivo skin deposition experiments were carried out utilising a modified Franz diffusion cell. Full thickness skin was collected and excised within 24 hours of birth. On the day of the experiment, the skin was first pre-equilibrated in PBS at pH 7.4 for 30 minutes until totally thawed and then carefully shaved using a razor. It was then cyanoacrylate-glued to the donor compartment of the Franz diffusion cells to ensure its adhesion to the set up during the microneedle insertion and throughout the experiment. Microneedle arrays were applied to the skin using firm thumb pressure for 30 seconds. A stainless-steel cylinder (diameter 11 mm, mass 11.5 g) was put on the top of each microneedle array to hold them in place throughout the experiment. The receiver compartment was filled with 12 mL of 1% w/v SLS in PBS (pH 7.4). The donor compartment was clamped on top of the receiver compartment and wrapped with Parafilm® M to prevent solvent evaporation. Samples of 200 μL of the receiver compartment were taken at predefined time points of 0.5, 1, 1.5, 2, 3, 4, 6, 10, and 24 hours and was replaced with the fresh release medium. At 24 hours, the Franz cells were disassembled, the skin surface dabbed clean to remove surface drug, and glecaprevir and pibrentasvir were extracted from skins. Cumulative amounts of glecaprevir and pibrentasvir delivered from each formulation to both skin and receiver compartments were also determined. To extract the drug from the skin, skin samples collected at 24 hours were cut into small pieces, where 0.5 ml of water was added to each sample. They were then homogenised for 15 minutes using a Tissue Lyser LT. Subsequently, 1 mL of methanol was added, and samples were homogenised again for another 15 minutes. Then they were transferred to the tubes followed by adding 3.5 mL of methanol. After a 30-min sonication, 100 μL of the samples were diluted to 1 mL by PBS buffer. The samples were vortexed and centrifuged, then analysed by HPLC.

[2] = Terminal half-life of conventional aqueous formulations injected intramuscularly; parameters: species or system adult male Wistar rats; conditions: male, Wistar, rat, in vivo, im
Text: The foregoing experiments have shown that solid compositions comprising microparticles of glecaprevir and/or pibrentasvir may be formed through combination with certain first and second excipients. […] The solid compositions have also been reformulated into implantable rods, and microneedle arrays. Any of the solid compositions, aqueous dispersions, implantable rods, and microneedle arrays are expected to be therapeutically useful based on the known therapeutic uses of glecaprevir and pibrentasvir and the well-tolerated nature of the first and second excipients used. In addition, the form of the solid composition, aqueous dispersion, implantable rod, and microneedle array are expected to provide enhanced pharmacokinetic properties and therapeutic benefits when compared to conventional glecaprevir and pibrentasvir orally-dosed formulations. […] In particular, the formulations comprising microparticles of glecaprevir and/or pibrentasvir as described herein are expected to greatly improve the terminal half-life of the glecaprevir and/or pibrentasvir in vivo as compared to conventional aqueous formulations in which the glecaprevir and/or pibrentasvir are solubilised through addition of DMSO, when the formulations are delivered as intramuscular and/or subcutaneous injections.

[3] = In vivo plasma concentration after microneedle, intramuscular and intravenous administration (Example 22); parameters: species or system Female Sprague-Dawley rats; conditions: 5 mg/kg IV in DMSO/PEG 400/cyclodextrin; monitored 48 hour
Experimental: Animals were separated into three cohorts; each was comprised of 6 rats. Every 3 rats were housed in a different cage. Each rat of the first cohort (rats 1-6) received four microneedle arrays with a total dose of 16 mg (8 mg of glecaprevir and 8 mg of pibrentasvir). The second cohort (rats 7-12) received intramuscular injections of glecaprevir and pibrentasvir. For each rat, 37.5 mg of the glecaprevir30/pibrentasvir30/[…]10 formulation was dispersed in 300 μL of sterile water, then 150 μL of the solution was injected into each thigh of the rat. The dose given to each rat was approximately […]. The final cohort (rats 13-18) received 5 mg/kg of glecaprevir and pibrentasvir given as IV injections. The IV formulations were prepared by dissolving each drug in 5% v/v DMSO, 10% v/v PEG 400 in water diluted with 20% v/v hydroxy-B-cyclodextrin in water. To minimise the interference of hair in application of the microneedle arrays, the dorsal hair of the rats from the first cohort (rats 1-6) was removed prior to the experiment. The bulk hair was shaved using an electric hair clipper and the remaining hair residuals were removed using depilatory hair removal cream. Rats were then left for a 24 hour period to allow the skin to recover and to ensure complete restoration of skin barrier function before affixing the microneedle arrays. […]

SMILES	deposited into the skin ([1]; from microneedle arrays, over 24 h) [µg]	delivered to the receiver compartment of the Franz diffusion cells ([1]; from microneedle arrays, over 24 h, receiver 1% w/v SLS in PBS pH 7.4) [µg]	total amount delivered to the skin and receiver compartment ([1]; from microneedle arrays, over 24 hours) [µg]	total amount delivered as share of drug initially present in the microneedle arrays ([1]; over 24 hours) [%]	half-life ([2]; conventional aqueous formulation (solubilised through addition of DMSO), injected intramuscularly, read-out: terminal half-life (converted)) [h]	plasma concentration after intravenous (IV) administration [3]	delivered to the receiver compartment of the Franz diffusion cells ([1]; 24 h, pH 7.4) [µg]	deposited into the skin ([1]; 24 h, pH 7.4) [µg]	total amount delivered as share of drug initially present in the microneedle arrays ([1]; 24 h, pH 7.4) [%]	total amount delivered to the skin and receiver compartment ([1]; 24 h, pH 7.4) [µg]	half-life [2] [h]
CC(C)(C)[C@@H]1NC(=O)O[C@@H]2CCC[C@H]2OC/C=C/C(F)(F)c2nc3ccccc3nc2O[C@@H]2C[C@@H](C(=O)N[C@]3(C(=O)NS(=O)(=O)C4(C)CC4)C[C@H]3C(F)F)N(C2)C1=O [glecaprevir, Glecaprevir]	285.2 ± 51.3	203.9 ± 41.3	489.1 ± 68.6	25.1±3.5	4	subsided quickly within the 48 hour period					
COC(=O)N[C@H](C(=O)N1CCC[C@H]1c1nc2cc([C@H]3CC[C@H](c4cc5nc([C@@H]6CCCN6C(=O)[C@@H](NC(=O)OC)[C@@H](C)OC)[nH]c5cc4F)N3c3cc(F)c(N4CCC(c5ccc(F)cc5)CC4)c(F)c3)c(F)cc2[nH]1)[C@@H](C)OC [pibrentasvir, Pibrentasvir]							115.2 ± 29	304 ± 45.7	23.4±3.2	419.2 ± 56.6	10
